# Values quoted from earlier work, collected in patent publication US10220158B2 (kaleo, Inc., priority 2014, dated 2019).
# Details: jet injector vs conventional syringe
compound,measurement,value
Cc1ncc2n1-c1ccc(Cl)cc1C(c1ccccc1F)=NC2 [midazolam],peak midazolam plasma concentrations produced faster,over 30%
